According to PMC5042873 (Journal of the American Chemical Society, 2016):

Assays:
[1] = tested on: GLUT1 expressing breast cancer (G1fpt); assay: In vivo antitumor efficacy, GLUT1 expressing breast cancer syngeneic model; set-up: species or system Balb/c mice; conditions: 5 mg/kg i.v. bolus, four treatments once every other day, 30 days
[2] = In vivo toxicity by body weight and general behavior; set-up: species or system Balb/c mice; conditions: 5 mg/kg, 4X in 8 days
GLUT1 transporters = conditions: cited from earlier work

Row | SMILES | antitumor efficacy (tumor volume) [1] | tumors smaller compared to tumors in the PBS treated control group [1] | body weight [2] | affinity for GLUT1 transporters relative to D-glucose (GLUT1 transporters)
1 | O=C1[O][Pt]2([NH][C@@H]3CCCC[C@H]3[NH]2)[O]C1=O [oxaliplatin] | no statistically significant difference compared to the Glc-Pt 2 treated group | 10 times | reduced after the second dose but recovered to normal values | 
2 | O=[N+]([O-])c1ccc(NCC2OC(O)C(O)C(O)[C@@H]2O)c2nonc12 (stereo partly shown) [6-NBDG] |  |  |  | 300 fold
